The structures appear in SMILES notation. pIC50: −log10 of the molar value. Converted amounts (≈) assume the structure as drawn. A value given as a limit tells only on which side of the number the result lay.

Chain of DNA topoisomerase 2-alpha (P11388 whole entry): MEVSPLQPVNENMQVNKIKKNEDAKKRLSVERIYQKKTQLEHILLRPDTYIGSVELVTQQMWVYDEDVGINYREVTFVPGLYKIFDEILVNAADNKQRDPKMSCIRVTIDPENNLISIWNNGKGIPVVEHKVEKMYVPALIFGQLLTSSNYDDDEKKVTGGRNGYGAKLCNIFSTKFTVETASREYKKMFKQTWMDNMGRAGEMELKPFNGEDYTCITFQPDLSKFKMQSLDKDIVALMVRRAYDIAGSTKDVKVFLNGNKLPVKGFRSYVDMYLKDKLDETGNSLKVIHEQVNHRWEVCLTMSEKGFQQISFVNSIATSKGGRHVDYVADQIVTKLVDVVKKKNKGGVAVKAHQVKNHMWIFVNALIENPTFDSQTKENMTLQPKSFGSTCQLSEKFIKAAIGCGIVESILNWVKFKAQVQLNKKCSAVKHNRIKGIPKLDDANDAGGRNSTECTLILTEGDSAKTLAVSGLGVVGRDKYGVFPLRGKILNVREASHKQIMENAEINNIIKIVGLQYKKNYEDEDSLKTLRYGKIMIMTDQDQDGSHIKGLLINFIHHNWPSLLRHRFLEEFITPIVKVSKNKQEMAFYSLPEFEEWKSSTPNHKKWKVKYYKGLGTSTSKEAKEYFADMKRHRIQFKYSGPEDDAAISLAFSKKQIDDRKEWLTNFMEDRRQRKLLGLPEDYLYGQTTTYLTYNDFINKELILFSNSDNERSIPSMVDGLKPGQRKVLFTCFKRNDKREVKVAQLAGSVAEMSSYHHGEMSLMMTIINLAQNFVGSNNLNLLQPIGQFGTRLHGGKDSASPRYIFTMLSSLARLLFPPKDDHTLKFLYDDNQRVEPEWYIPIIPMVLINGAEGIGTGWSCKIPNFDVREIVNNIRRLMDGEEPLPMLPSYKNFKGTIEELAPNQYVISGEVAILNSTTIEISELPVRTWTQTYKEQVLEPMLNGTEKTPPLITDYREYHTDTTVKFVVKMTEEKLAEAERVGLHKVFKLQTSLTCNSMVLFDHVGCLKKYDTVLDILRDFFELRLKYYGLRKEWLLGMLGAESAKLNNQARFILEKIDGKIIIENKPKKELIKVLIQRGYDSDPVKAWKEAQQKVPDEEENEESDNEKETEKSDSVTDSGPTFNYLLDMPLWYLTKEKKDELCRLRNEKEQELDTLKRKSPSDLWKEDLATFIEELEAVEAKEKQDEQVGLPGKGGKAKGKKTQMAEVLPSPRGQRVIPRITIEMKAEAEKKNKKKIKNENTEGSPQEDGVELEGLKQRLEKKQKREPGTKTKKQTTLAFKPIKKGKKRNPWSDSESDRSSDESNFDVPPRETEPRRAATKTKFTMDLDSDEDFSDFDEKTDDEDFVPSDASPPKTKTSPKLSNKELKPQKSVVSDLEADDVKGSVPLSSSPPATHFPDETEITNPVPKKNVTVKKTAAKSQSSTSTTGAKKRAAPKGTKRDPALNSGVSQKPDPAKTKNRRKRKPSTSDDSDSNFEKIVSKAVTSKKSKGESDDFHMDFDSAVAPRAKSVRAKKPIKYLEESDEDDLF

Test system in the first data set: not listed separately
The experiment in a line: Cytotoxicity against human HepG2 cells assessed as reduction in cell viability for 24 hrs by Celltiter-Glo assay. In kind it is toxicity, cell-based.
Conditions: not given
(In general: In ATP-based viability assays light output follows the ATP content of the culture.)
As for `COc1cnc2ccc(=O)n(CCN[C@H]3CC[C@H]4[C@H](C3)OC(=O)N4c3ccc4c(n3)NC(=O)CO4)c2c1`, the IC50 at 24 h is more than 128 µg/mL.
`COc1ccc2ccc(=O)n(CCN[C@@H]3CC[C@@H]4[C@H](C3)OC(=O)N4c3ccc4c(n3)NC(=O)CO4)c2n1`: the IC50 at 24 h was more than 32 µg/mL.

In a further data set the test system is Escherichia coli. The experiment in a line: Antibacterial activity against Escherichia coli W4573 assessed as bacterial growth inhibition by CLSI protocol based assay. In kind it is functional.
Conditions: not given
As to `COc1cnc2ccc(=O)n(CCN[C@H]3CC[C@H]4[C@H](C3)OC(=O)N4c3ccc4c(n3)NC(=O)CO4)c2c1`, the MIC was 0.25 µg/mL (≈ 0.494 µM).
Still for that read-out and setting: with `COc1ccc2ccc(=O)n(CCN[C@@H]3CC[C@@H]4[C@H](C3)OC(=O)N4c3ccc4c(n3)NC(=O)CO4)c2n1` the figure was 0.25 µg/mL (≈ 0.494 µM).

The next data set addresses DNA gyrase (Escherichia coli, UniProt P0AES4+P0AES6). The experiment in a line: Inhibition of Escherichia coli DNA gyrase supercoiling activity. In kind it is protein-complex assay.
Conditions: not given
As for `COc1cnc2ccc(=O)n(CCN[C@H]3CC[C@H]4[C@H](C3)OC(=O)N4c3ccc4c(n3)NC(=O)CO4)c2c1`, the pIC50 is 6.66.

Test system in the next data set: not listed separately
Nature of the data set: Intrinsic clearance in mouse liver microsomes in presence of NADPH and measured upto 45 mins. In kind it is ADME, Microsome. The settings on record: read-out: CLH. (In general: Liver microsomes are a subcellular fraction often used to study metabolism.)
With `COc1cnc2ccc(=O)n(CCN[C@H]3CC[C@H]4[C@H](C3)OC(=O)N4c3ccc4c(n3)NC(=O)CO4)c2c1`, the microsomal CLint is 62 µL/min/mg.

For the next data set, the system named is Pseudomonas aeruginosa. Nature of the data set: Antibacterial activity against Pseudomonas aeruginosa ATCC 27853 assessed as bacterial growth inhibition by CLSI protocol based assay. In kind it is functional.
Conditions: not given
For `COc1cnc2ccc(=O)n(CCN[C@H]3CC[C@H]4[C@H](C3)OC(=O)N4c3ccc4c(n3)NC(=O)CO4)c2c1`, the MIC stood at 2 µg/mL (≈ 3.95 µM).
Consider `COc1ccc2ccc(=O)n(CCN[C@@H]3CC[C@@H]4[C@H](C3)OC(=O)N4c3ccc4c(n3)NC(=O)CO4)c2n1`, for which the MIC turned out to be 4 µg/mL (≈ 7.9 µM).

For a further data set, the system named is Klebsiella pneumoniae. Nature of the data set: Antibacterial activity against Klebsiella pneumoniae ATCC 700603 assessed as bacterial growth inhibition by CLSI protocol based assay. In kind it is functional.
Conditions: not given
As for `COc1cnc2ccc(=O)n(CCN[C@H]3CC[C@H]4[C@H](C3)OC(=O)N4c3ccc4c(n3)NC(=O)CO4)c2c1`, the MIC is 8 µg/mL (≈ 15.8 µM).
As for `COc1ccc2ccc(=O)n(CCN[C@@H]3CC[C@@H]4[C@H](C3)OC(=O)N4c3ccc4c(n3)NC(=O)CO4)c2n1`, the MIC is 8 µg/mL (≈ 15.8 µM).

Test system in another data set: not listed separately
The experiment in a line: Kinetic solubility of compound. In kind it is physicochemical. The following applies: read-out: Kinetic_solubility.
For the compound `COc1cnc2ccc(=O)n(CCN[C@H]3CC[C@H]4[C@H](C3)OC(=O)N4c3ccc4c(n3)NC(=O)CO4)c2c1`, the solubility kinetic came out at 94 µM (≈ 47.6 µg/mL).

A further data set concerns Acinetobacter baumannii. The experiment in a line: Antibacterial activity against Acinetobacter baumannii NCTC 13420 assessed as bacterial growth inhibition by CLSI protocol based assay. In kind it is functional.
Conditions: not given
Consider `COc1cnc2ccc(=O)n(CCN[C@H]3CC[C@H]4[C@H](C3)OC(=O)N4c3ccc4c(n3)NC(=O)CO4)c2c1`, for which the MIC was 1 µg/mL (≈ 1.97 µM).
Still for that read-out and setting: with `COc1ccc2ccc(=O)n(CCN[C@@H]3CC[C@@H]4[C@H](C3)OC(=O)N4c3ccc4c(n3)NC(=O)CO4)c2n1` the figure was 1 µg/mL (≈ 1.97 µM).

Test system in another data set: not listed separately
The experiment in a line: Protein binding in human plasma by equilibrium dialysis assay. The format is ADME, cell-free. The following applies: read-out: PPB (converted). On the technique in general: Equilibrium dialysis compares concentrations on both sides of a semipermeable membrane.
For the compound `COc1ccc2ccc(=O)n(CCN[C@@H]3CC[C@@H]4[C@H](C3)OC(=O)N4c3ccc4c(n3)NC(=O)CO4)c2n1`, the fraction unbound was 0.965.

Test system in the next data set: not listed separately
The experiment in a line: Inhibition of Escherichia coli topoisomerase 4 assessed as reduction in decatenation.
Conditions: not given
As for `COc1cnc2ccc(=O)n(CCN[C@H]3CC[C@H]4[C@H](C3)OC(=O)N4c3ccc4c(n3)NC(=O)CO4)c2c1`, the pIC50 was 7.00.

Test system in a further data set: not listed separately
Nature of the data set: Lipophilicity, logD of the compound by shake flask assay. The following applies: octanol/water. The format is physicochemical.
As for `COc1cnc2ccc(=O)n(CCN[C@H]3CC[C@H]4[C@H](C3)OC(=O)N4c3ccc4c(n3)NC(=O)CO4)c2c1`, the logD came to 1.36.
`COc1ccc2ccc(=O)n(CCN[C@@H]3CC[C@@H]4[C@H](C3)OC(=O)N4c3ccc4c(n3)NC(=O)CO4)c2n1` came in with a logD of 2.

The next data set concerns the target DNA topoisomerase 2-alpha (Homo sapiens, UniProt P11388). The experiment in a line: Inhibition of human topoisomerase 2 assessed as reduction in decatenation.
Conditions: not given
For the compound `COc1cnc2ccc(=O)n(CCN[C@H]3CC[C@H]4[C@H](C3)OC(=O)N4c3ccc4c(n3)NC(=O)CO4)c2c1`, the pIC50 was less than 4.00.

Test system in the next data set: not listed separately
Nature of the data set: Plasma protein binding in mouse assessed as free fraction by equilibrium dialysis assay. The format is ADME, cell-free.
Conditions: not given
For the compound `COc1cnc2ccc(=O)n(CCN[C@H]3CC[C@H]4[C@H](C3)OC(=O)N4c3ccc4c(n3)NC(=O)CO4)c2c1`, the fraction unbound was 0.25.

Test system in a further data set: not listed separately
Nature of the data set: Protein binding in mouse plasma by equilibrium dialysis assay. In kind it is ADME, cell-free. The settings on record: read-out: PPB (converted).
With `COc1ccc2ccc(=O)n(CCN[C@@H]3CC[C@@H]4[C@H](C3)OC(=O)N4c3ccc4c(n3)NC(=O)CO4)c2n1`, the fraction unbound is 0.873.

For a further data set, the system named is Staphylococcus aureus. The experiment in a line: Antibacterial activity against Staphylococcus aureus ATCC 29213 assessed as bacterial growth inhibition by CLSI protocol based assay. In kind it is functional.
Conditions: not given
Take `COc1cnc2ccc(=O)n(CCN[C@H]3CC[C@H]4[C@H](C3)OC(=O)N4c3ccc4c(n3)NC(=O)CO4)c2c1`: the MIC was determined as 0.03 µg/mL (≈ 0.0592 µM).
Take `COc1ccc2ccc(=O)n(CCN[C@@H]3CC[C@@H]4[C@H](C3)OC(=O)N4c3ccc4c(n3)NC(=O)CO4)c2n1`: the MIC amounted to 0.008 µg/mL (≈ 0.0158 µM).

For another data set, the system named is Escherichia coli. The experiment in a line: Antibacterial activity against Escherichia coli N43 assessed as bacterial growth inhibition by CLSI protocol based assay.
Conditions: not given
The format is functional.
Take `COc1cnc2ccc(=O)n(CCN[C@H]3CC[C@H]4[C@H](C3)OC(=O)N4c3ccc4c(n3)NC(=O)CO4)c2c1`: the MIC is not above 0.008 µg/mL.
The same measure, in the same setting: with `COc1ccc2ccc(=O)n(CCN[C@@H]3CC[C@@H]4[C@H](C3)OC(=O)N4c3ccc4c(n3)NC(=O)CO4)c2n1` the figure was 0.004 µg/mL (≈ 0.0079 µM).

The target of the next data set is Voltage-gated inwardly rectifying potassium channel KCNH2 (Homo sapiens, UniProt Q12809). Nature of the data set: Inhibition of human ERG by Ionworks electrophysiology assay. In kind it is toxicity.
Chain of Voltage-gated inwardly rectifying potassium channel KCNH2 (Q12809 whole entry): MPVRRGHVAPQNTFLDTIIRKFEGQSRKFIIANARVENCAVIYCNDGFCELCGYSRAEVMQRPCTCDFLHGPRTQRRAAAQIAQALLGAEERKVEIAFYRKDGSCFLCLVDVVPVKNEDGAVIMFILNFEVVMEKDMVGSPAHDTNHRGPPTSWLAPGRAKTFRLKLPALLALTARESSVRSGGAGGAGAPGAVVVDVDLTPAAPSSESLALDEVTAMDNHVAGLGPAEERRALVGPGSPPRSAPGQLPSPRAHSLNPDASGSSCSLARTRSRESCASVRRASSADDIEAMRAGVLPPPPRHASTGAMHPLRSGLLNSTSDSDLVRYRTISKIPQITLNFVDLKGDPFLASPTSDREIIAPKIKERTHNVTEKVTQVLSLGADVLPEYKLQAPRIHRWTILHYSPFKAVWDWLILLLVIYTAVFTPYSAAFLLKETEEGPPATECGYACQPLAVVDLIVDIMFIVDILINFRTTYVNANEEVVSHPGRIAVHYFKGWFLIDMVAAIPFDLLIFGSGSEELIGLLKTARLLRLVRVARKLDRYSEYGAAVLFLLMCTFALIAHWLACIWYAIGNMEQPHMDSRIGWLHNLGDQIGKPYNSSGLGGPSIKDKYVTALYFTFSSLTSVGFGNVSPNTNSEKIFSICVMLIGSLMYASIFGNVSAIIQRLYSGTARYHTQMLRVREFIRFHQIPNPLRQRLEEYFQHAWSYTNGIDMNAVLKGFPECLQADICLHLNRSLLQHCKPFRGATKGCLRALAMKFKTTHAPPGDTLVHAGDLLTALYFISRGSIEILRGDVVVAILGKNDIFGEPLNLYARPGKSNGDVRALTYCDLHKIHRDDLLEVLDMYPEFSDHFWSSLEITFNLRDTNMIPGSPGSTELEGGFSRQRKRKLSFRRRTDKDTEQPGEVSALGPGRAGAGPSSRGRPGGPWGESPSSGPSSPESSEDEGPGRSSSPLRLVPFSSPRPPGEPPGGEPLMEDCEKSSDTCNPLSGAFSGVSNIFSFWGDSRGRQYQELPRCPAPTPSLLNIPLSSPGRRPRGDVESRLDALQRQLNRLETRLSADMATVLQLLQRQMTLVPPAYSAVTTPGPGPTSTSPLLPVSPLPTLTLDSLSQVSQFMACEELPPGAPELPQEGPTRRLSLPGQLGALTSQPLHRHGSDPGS
Conditions: not given
`COc1cnc2ccc(=O)n(CCN[C@H]3CC[C@H]4[C@H](C3)OC(=O)N4c3ccc4c(n3)NC(=O)CO4)c2c1`: the pIC50 was 4.49.
On the same count and under the same terms, with `COc1ccc2ccc(=O)n(CCN[C@@H]3CC[C@@H]4[C@H](C3)OC(=O)N4c3ccc4c(n3)NC(=O)CO4)c2n1` the figure was 5.30.

Test system in the next data set: not listed separately
The experiment in a line: Intrinsic clearance in human liver microsomes in presence of NADPH and measured upto 45 mins. The following applies: read-out: CLH. The format is ADME, Microsome.
Consider `COc1cnc2ccc(=O)n(CCN[C@H]3CC[C@H]4[C@H](C3)OC(=O)N4c3ccc4c(n3)NC(=O)CO4)c2c1`, for which the microsomal CLint came out at 35 µL/min/mg.

A word on the IC50: it is the concentration that gives 50% inhibition. As a reminder, the MIC is the lowest concentration that inhibits growth of the organism. As a reminder, the pIC50 is the IC50 on a negative log10 scale, so that one unit is a factor of ten. For orientation: logD means lipophilicity at a set pH, counting ionised and neutral species.

For the origin of these results see ChEMBL document CHEMBL5143607, “Discovery and structure-activity relationships of a novel oxazolidinone class of bacterial type II topoisomerase inhibitors” (Bioorg Med Chem Lett, 2022).
